Data published in patent US6537800B1, “Apparatus for automatically measuring minute membrane potential” (Center for Advanced Science and Technology Incubation, Ltd., priority 1998, dated 2003).

Key:
PC12 cells [1] = test: Membrane resistance and membrane potential after light irradiation (patch clamp); type: cell-based, rat
Procedure: Since minute membrane defects must be monitored at a cell level for a period of time in the order of seconds to several minutes including a recovery process, the patch clamp method, which is used for electrophysiological experiments, was used to measure the potential between the cell membranes or ion current transmitted through the cell membrane.
The photosensitizer BAT was dispersed in a HEPES (25 mM, pH 7.4) buffer.
The cells were incubated in a culture medium for electrophysiological experiments at roam temperature. The culture medium used for this experiment was composed of 124 mM of NaCl, 5 mM of KCl, 2.4 mM of CaCl2.2H2O, 1.3 mM of MgSO4.7H2O, and 10 mM of glucose, with a final pH adjusted to 7.4 by addition of NaOH. To prevent the averse effects of evaporation, the culture medium for electrophysiological experiments was replaced with a new at the intervals of 40 minutes at maximum.
The BAT was added so as to have a final Concentration of 49 μM. The quantity of light applied was set at three levels: 0.47 J/cm^2, 0.94 J/cm^2, and 1.57 J/cm^2.
A liquid in the patch electrode was composed of 132 mM of KCl, 8 mM of NaCl, 2 mM of MgCl2, 30 mM of HEPES, 4 mM of Na2ATP, 0.3 mM of GTP, and 0.5 mM of EGTA, with a final pH adjusted to 7.3 by addition of NaOH.
Since a zoom function allows light to be concentrated in an area smaller than a normal area, the amount of light per unit area increases in proportion to the square of a zoom magnification. The excitation light is transmitted through the plastic of the collagen coat dish before actually reaching the cell, so that a decrease in light quantity must actually be taken into consideration.
In irradiating the cell with the excitation light, a TTL signal operating in connection with an electrophysiological record is transmitted to the light source as required to synchronize the light irradiation with electric measurements.
Before starting the electrophysiological experiments, the cell membrane potential had been maintained between −80 and −60 mV.
The cell membrane potential measuring amplifier was Axpopatch 1-D (Axon Instruments). The membrane resistance was calculated from a change in membrane potential occurring when a 1-Hz rectangular-wave overpolarization current flowed through the membrane for 350 milliseconds. The amount of, current supplied (0.1 or 0.15 nA) was selected so that the change in membrane potential would not exceed 30 mV when power was supplied. Under these experimental conditions, the PC12 cell generated no action potential. Measured potential and current values were analyzed using Axoscope ver. 1.1 (manufactured by Axon Instruments).
In FIG. 9, the axis of abscissa indicates an elapsed time (unit: second). The axis of ordinate indicates the resistance of the cell membrane (unit: %) in the upper part and the potential thereof in the lower part, both values being normalized by setting corresponding values prior to irradiation equal to […]. The membrane resistance reflects the ion transmission inhibiting capability, and the membrane potential reflects the active ion transporting capability of the membrane effected by activities of various intermembrane ion transporting systems as well as the ion transmission inhibiting capability.
A microinjection device was connected to a minute glass pipette held in a micromanipulator, and the minute glass pipette was filled with a solution with the photosensitizer BAT dispersed therein (BAT concentration: 2 mM, water solvent). The glass pipette was located in such a manner that its tip was connected to the patch electrode and located within 200 μm from a cell for which the membrane potential and resistance were to be measured.

PC12 cells [2] = test: Microinjection success rate (Lucifer Yellow injection) using photosensitized membrane destruction; type: cell-based, rat; details: BAT-containing injection liquid, no light applied, capillary kept in contact with cell, n=30
Procedure: To determine whether the microinjection process was successful, the water-soluble fluorescent pigment Lucifer Yellow CH (LY)was added to an injection liquid. […] Evaluation was made to determine how the success rate of injection of the LY into the cell varied depending on the presence of the photosesirizer BAT in the injection liquid or the presence of application of the BAT exciting light.
To make the microinjection successful, a glass capillary having a diameter of several hundred nanometers at a tip opening thereof must be brought into contact with the cell at a high speed to physically instantaneously penetrate and punch the cell membrane. In the experiments, an electric micromanipulator (manufactured by Eppendorf; Micromanipulator 5171) and an electric injector (manufactured by Eppendorf; Transjector 5246), which can both operate under the control of a program, could be used to set a speed at which the capillary contacted with the membrane, at an arbitrary value. In addition, the injection capillary was a commercially available product (manufactured by Eppendorf; FemtoTips) mass-produced for the above apparatuses. […]

PC12 cells [3] = test: Cell survival rate after injection process (LY retaining rate); type: cell-based, rat
Procedure: A cell survival rate after the injection process was compared between cells subjected to the normal microinjection process using the physical shearing force and cells subjected to the photosensitizing microinjection.
The LY was injected into the cell by means of microinjection. In a dead cell with its cell membrane collapsed, the LY disperses quickly to lose its color [Cell, 14, 741-759 (1987)]. Thus, using a rate at which the cell subjected to the injection process holds the LY, as an index indicating the cell survival rate, the survival rates 3 and 6 days after the injection process were compared to each other.
In FIG. 13, the axis of abscissa indicates the number of days passing after the injection process (unit: day), while the axis of ordinate indicates the survival rate (units %).

Water solubility = type: physicochemical
Source text: A thiophen oligomer having an aminomethyl group at a terminal thereof has a higher water solubility than any other derivative of the same kind due to this terminal aminomethyl group. The water solubility varies depending on how the aminomethyl group is released. […] By irrigating the cell with the BAT-dispersed solution under the above pH condition, this molecule can be easily added to a surface of the cell. The hydrophilic property of the BAT molecule is new and is absent from the other modified thiophen oligomers including an a terthienyl derivative as well as other molecules designed as conductive high-molecular monomers.

[4] = B: 4.94 J/cm^2 light, BAT 49 μM, several seconds after irradiation

## Cl.Cl.NCc1ccc(-c2ccc(-c3ccc(CN)s3)s2)s1 [BAT, 5′5″-bis(aminomethyl)-2,2′:5′2″-terthiophene dihydrochloride]
PC12 cells [1]; A: 0.47 J/cm^2 light, BAT 49 μM, 363-nm argon ion laser
  cell membrane resistance and membrane potential after light irradiation: varied slightly but not significantly
PC12 cells [1]; [4]
  cell membrane resistance after light irradiation: decreased
  membrane potential after light irradiation: depolarized
PC12 cells [1]; BAT 2 mM dispersed solution ejected from minute glass pipette onto target cell, laser as in Example 3
  cell membrane potential after laser beam: depolarized
PC12 cells [1]; C: 1.57 J/cm^2 light, BAT 49 μM
  time after light irradiation to loss of membrane resistance and potential: about 8 seconds
PC12 cells [1]; C: 1.57 J/cm^2 light, BAT 49 μM, then remained at fixed values (irreversible)
  cell membrane resistance and membrane potential after light irradiation: lost
PC12 cells [2]
  injection success rate: 13%
PC12 cells [3]; photosensitizing injection (BAT + light), three to six days after injection
  cell survival rate (LY retention): about 90%
Water solubility; acid water solution (bivalent positive charge)
  water solubility: easily soluble
Water solubility; water solution with biologically suitable pH range (near 7.4), univalent positive charge type
  water solubility: maintains a high water solubility

## NNC(=O)NN1C(=O)c2cc(S(=O)(=O)O)cc3c(N)c(S(=O)(=O)O)cc(c23)C1=O [LY, Lucifer Yellow CH, reference compound]
PC12 cells [3]; control examples: normal injection, 3 days after the injection
  survival rate: 17%
